Data as given in patent US20080064871A1, “Production Method of Nitrogen-Containing Fused Ring Compounds” (Japan Tobacco Inc., priority 2006, published 2008).
pIC50: −log10 of the molar value.

Biological target: T1, human URAT1 (Homo sapiens, UniProt Q96S37)
T1 construct: Human URAT1 full length cDNA was subcloned to expression vector pcDNA3.1; expressed in transfected cells; host or cells: HEK293 cells (pcDNA3.1, geneticin-selected)
T1 sequence (Q96S37 1-553): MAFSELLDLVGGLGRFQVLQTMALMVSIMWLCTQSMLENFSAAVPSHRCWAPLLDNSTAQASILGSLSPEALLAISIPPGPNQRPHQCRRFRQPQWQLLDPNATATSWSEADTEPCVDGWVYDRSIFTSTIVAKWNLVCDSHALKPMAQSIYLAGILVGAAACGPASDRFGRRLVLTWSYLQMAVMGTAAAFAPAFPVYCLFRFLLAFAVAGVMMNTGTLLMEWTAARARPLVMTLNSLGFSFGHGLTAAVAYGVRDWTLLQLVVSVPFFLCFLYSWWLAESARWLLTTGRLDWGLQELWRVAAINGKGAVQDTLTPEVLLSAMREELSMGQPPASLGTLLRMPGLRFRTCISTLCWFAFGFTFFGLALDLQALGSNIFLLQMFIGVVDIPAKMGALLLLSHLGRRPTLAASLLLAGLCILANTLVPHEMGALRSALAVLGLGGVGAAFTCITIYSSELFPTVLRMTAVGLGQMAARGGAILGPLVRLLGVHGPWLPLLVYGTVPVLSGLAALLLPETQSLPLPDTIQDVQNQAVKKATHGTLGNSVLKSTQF
Test: Uric acid transport inhibitory test using human URAT1-expressing cells
Assay type: cell-based
Conditions: human URAT1 expressing HEK293 cells, uptake of 14C-labeled uric acid for 5 min, room temperature; read-out: hURAT1 (IC50, concentration necessary for inhibiting the uric acid transport rate by 50%)
Description: Reference Experimental Example 1 Uric Acid Transport Inhibitory Test Using Human Urat1-Expressing Cells
Human URAT1 full length cDNA was subcloned to expression vector pcDNA3.1 and human URAT1 gene was transfected into human embryonic kidney derived cell line (HEK293 cells) by liposome method using Lipofectamine2000. Simultaneously, HEK293 cells transfected with expression vector pcDNA3.1 alone (hereinafter mock cells) were also produced. HEK293 cells expressing human URAT1 gene or mock cells were selected with geneticin resistance as an index. The functional expression of human URAT1 gene was confirmed by a method similar to the following method, using transport of uric acid labeled with ^14C into the cells as an index.
Human URAT1 expressing HEK293 cells or mock cells were cultured in Dulbecco's modified Eagle's MEM medium (high glucose) containing 10% fetal bovine serum, 0.5 mg/mL geneticin sulfate, 100 units/mL penicillin and 100 μg/mL streptomycin under the conditions of 37° C. and 5% CO2 in an incubator. The cells were plated in a 96 well plate (poly-D-Lysine coated) at 1×10^5 cells/well and the following uric acid transport inhibitory test was performed 24 hr later. This test was performed at room temperature.
After the medium was removed by aspiration from each well, the cells were washed once with Hank's Balanced Salt Solution (HBSS) and preincubated with HBSS ([…]) for 5 min. HBSS was aspirated and an assay buffer (wherein NaCl in the above-mentioned HBSS had been substituted with Na-gluconate) containing various concentrations of the Example compound and a radioactive ligand (uric acid labeled with 14C; final concentration […]) was added to each well at […] and an uptake reaction was carried out for 5 min. After the reaction, the cells were washed twice with ice-cold HBSS ([…]), and Microscin ti TM 20 (PerkinElmer) was added at […]. The cells were lysed by stirring and the radioactivity of each well was measured in a liquid scintillation counter (TOP COUNT, Packard).
The uric acid transport rate (%) of the Example compound at each concentration was calculated relative to the radioactivity (difference in radioactivity between human URAT1 expressing HEK293 cells and mock cells without addition of Example compound (DMSO addition)) showing URAT1 specific uric acid transport as 100%, and the concentration (IC50) of the Example compound necessary for inhibiting the uric acid transport rate by 50% was determined. In Table-Table, “+++” means IC50 value of less than 100 nM, “++” means IC50 value of 100 nM to less than 1000 nM, and “+” means IC50 value of 1000 nM to less than 3000 nM.

Row | SMILES | pIC50
1 | COc1cc(C(=O)N2CCOc3ccccc32)cc(Cl)c1O [Example 40, (3-chloro-4-hydroxy-5-methoxyphenyl)-(2,3-dihydrobenzo[1,4]oxazin-4-yl)-methanone] | 6.00 to 7.00
2 | O=C(c1cc(Cl)c(O)c(Cl)c1)N1CCOc2ccc(F)cc21 [Example 44, (3,5-dichloro-4-hydroxyphenyl)-(6-fluoro-2,3-dihydrobenzo[1,4]oxazin-4-yl)-methanone] | > 7.00
3 | O=C(c1cc(Cl)c(O)c(Cl)c1)N1CCOc2ccc(Cl)cc21 [Example 51, (6-chloro-2,3-dihydrobenzo[1,4]oxazin-4-yl)-(3,5-dichloro-4-hydroxyphenyl)-methanone] | > 7.00
4 | O=C(c1cc(Cl)c(O)c(Cl)c1)N1CCNc2ccccc21 [Example 54, (3,5-dichloro-4-hydroxyphenyl)-(3,4-dihydro-2H-quinoxalin-1-yl)-methanone] | 6.00 to 7.00
5 | COC(=O)c1cccc2c1N(C(=O)c1cc(Cl)c(O)c(Cl)c1)CCO2 [Example 58, methyl 4-(3,5-dichloro-4-hydroxybenzoyl)-3,4-dihydro-2H-benzo[1,4]oxazine-5-carboxylate] | 6.00 to 7.00
6 | O=C(c1cc(Cl)c(O)c(Cl)c1)N1CCOc2ccc(-c3ccccc3)cc21 [Example 65, (3,5-dichloro-4-hydroxyphenyl)-(6-phenyl-2,3-dihydrobenzo[1,4]oxazin-4-yl)-methanone] | 5.52 to 6.00
7 | O=C(c1cc(Cl)c(O)c(Cl)c1)N1CCOc2ccc([N+](=O)[O-])cc21 [Example 67, (3,5-dichloro-4-hydroxyphenyl)-(6-nitro-2,3-dihydrobenzo[1,4]oxazin-4-yl)-methanone] | > 7.00
8 | Nc1ccc2c(c1)N(C(=O)c1cc(Cl)c(O)c(Cl)c1)CCO2 [Example 68, (6-amino-2,3-dihydrobenzo[1,4]oxazin-4-yl)-(3,5-dichloro-4-hydroxyphenyl)-methanone] | 6.00 to 7.00
9 | O=C(c1cc(Cl)c(O)c(Cl)c1)N1CCOc2cc([N+](=O)[O-])ccc21 [Example 70, (3,5-dichloro-4-hydroxyphenyl)-(7-nitro-2,3-dihydrobenzo[1,4]oxazin-4-yl)-methanone] | 6.00 to 7.00
10 | CN1CCN(C(=O)c2cc(Cl)c(O)c(Cl)c2)c2ccccc21 [Example 74, (3,5-dichloro-4-hydroxyphenyl)-(4-methyl-3,4-dihydro-2H-quinoxalin-1-yl)-methanone] | 6.00 to 7.00
11 | O=C(c1cc(Cl)c(O)c(Cl)c1)N1CCc2ccccc21 [Example 77, (3,5-dichloro-4-hydroxyphenyl)-(2,3-dihydroindol-1-yl)-methanone] | 6.00 to 7.00
12 | O=C(c1cc(Br)c(O)c(Br)c1)N1CCOc2ccc(F)cc21 [Example 79, (3,5-dibromo-4-hydroxyphenyl)-(6-fluoro-2,3-dihydrobenzo[1,4]oxazin-4-yl)-methanone] | > 7.00
13 | Cc1ccc2c(c1)N(C(=O)c1cc(Br)c(O)c(Br)c1)CCO2 [Example 81, (3,5-dibromo-4-hydroxyphenyl)-(6-methyl-2,3-dihydrobenzo[1,4]oxazin-4-yl)-methanone] | > 7.00
14 | O=C(c1cc(Br)c(O)c(Br)c1)N1CCOc2ccc(Cl)cc21 [Example 82, (6-chloro-2,3-dihydrobenzo[1,4]oxazin-4-yl)-(3,5-dibromo-4-hydroxyphenyl)-methanone] | > 7.00

More lines, now with the values ahead:

Row | pIC50 | SMILES
15 | > 7.00 | O=C(c1ccc(O)c(C(F)(F)F)c1)N1CCOc2ccccc21 [Example 39, (2,3-dihydrobenzo[1,4]oxazin-4-yl)-(4-hydroxy-3-trifluoromethylphenyl)-methanone]
16 | 6.00 to 7.00 | O=C(c1ccc(Cl)c(O)c1)N1CCOc2ccccc21 [Example 41, (4-chloro-3-hydroxyphenyl)-(2,3-dihydrobenzo[1,4]oxazin-4-yl)-methanone]
17 | 6.00 to 7.00 | O=C(c1cc(Cl)c(O)c(Cl)c1O)N1CCOc2ccccc21 [Example 50, (3,5-dichloro-2,4-dihydroxyphenyl)-(2,3-dihydrobenzo[1,4]oxazin-4-yl)-methanone]
18 | 6.00 to 7.00 | O=C(c1cc(Cl)c(O)c(Cl)c1)N1CCOc2cc(Cl)ccc21 [Example 52, (7-chloro-2,3-dihydrobenzo[1,4]oxazin-4-yl)-(3,5-dichloro-4-hydroxyphenyl)-methanone]
19 | 6.00 to 7.00 | COC(=O)c1ccc2c(c1)N(C(=O)c1cc(Cl)c(O)c(Cl)c1)CCO2 [Example 55, methyl 4-(3,5-dichloro-4-hydroxybenzoyl)-3,4-dihydro-2H-benzo[1,4]oxazine-6-carboxylate]
20 | 6.00 to 7.00 | O=C(c1cc(Cl)c(O)c(Cl)c1)N1CCOc2ccc(CO)cc21 [Example 56, (3,5-dichloro-4-hydroxyphenyl)-(6-hydroxymethyl-2,3-dihydrobenzo[1,4]oxazin-4-yl)-methanone]
21 | 5.52 to 6.00 | COC(=O)c1ccc2c(c1)OCCN2C(=O)c1cc(Cl)c(O)c(Cl)c1 [Example 59, methyl 4-(3,5-dichloro-4-hydroxybenzoyl)-3,4-dihydro-2H-benzo[1,4]oxazine-7-carboxylate]
22 | 5.52 to 6.00 | COC(=O)c1cccc2c1OCCN2C(=O)c1cc(Cl)c(O)c(Cl)c1 [Example 61, methyl 4-(3,5-dichloro-4-hydroxybenzoyl)-3,4-dihydro-2H-benzo[1,4]oxazine-8-carboxylate]
23 | 5.52 to 6.00 | O=C(c1cc(Cl)c(O)c(Cl)c1)N1c2ccccc2Oc2ccccc21 [Example 64, (3,5-dichloro-4-hydroxyphenyl)-phenoxazin-10-ylmethanone]
24 | 6.00 to 7.00 | Cc1cc(C)c2c(c1)N(C(=O)c1cc(Cl)c(O)c(Cl)c1)CCO2 [Example 66, (3,5-dichloro-4-hydroxyphenyl)-(6,8-dimethyl-2,3-dihydrobenzo[1,4]oxazin-4-yl)-methanone]
25 | > 7.00 | O=C(c1cc(Br)c(O)c(Br)c1)N1CCOc2ccc([N+](=O)[O-])cc21 [Example 69, (3,5-dibromo-4-hydroxyphenyl)-(6-nitro-2,3-dihydrobenzo[1,4]oxazin-4-yl)-methanone]
26 | 5.52 to 6.00 | Nc1ccc2c(c1)OCCN2C(=O)c1cc(Cl)c(O)c(Cl)c1 [Example 71, (7-amino-2,3-dihydrobenzo[1,4]oxazin-4-yl)-(3,5-dichloro-4-hydroxyphenyl)-methanone]
27 | 6.00 to 7.00 | CC(=O)N1CCN(C(=O)c2cc(Cl)c(O)c(Cl)c2)c2ccccc21 [Example 73, 1-[4-(3,5-dichloro-4-hydroxybenzoyl)-3,4-dihydro-2H-quinoxalin-1-yl]-ethanone]
28 | 6.00 to 7.00 | O=C(c1ccc(O)c([N+](=O)[O-])c1)N1CCOc2ccccc21 [Example 75, (2,3-dihydrobenzo[1,4]oxazin-4-yl)-(4-hydroxy-3-nitrophenyl)-methanone]
29 | 6.00 to 7.00 | Nc1ccc2c(c1)CCN2C(=O)c1cc(Cl)c(O)c(Cl)c1 [Example 78, (5-amino-2,3-dihydroindol-1-yl)-(3,5-dichloro-4-hydroxyphenyl)-methanone]
30 | > 7.00 | O=C(c1cc(Br)c(O)c(Br)c1)N1CCOc2ccc3ccccc3c21 [Example 80, (3,5-dibromo-4-hydroxyphenyl)-(2,3-dihydronaphtho[2,1-b][1,4]oxazin-1-yl)-methanone]
31 | 6.00 to 7.00 | CS(=O)(=O)N1CCN(C(=O)c2cc(Cl)c(O)c(Cl)c2)c2ccccc21 [Example 83, (3,5-dichloro-4-hydroxyphenyl)-(4-methanesulfonyl-3,4-dihydro-2H-quinoxalin-1-yl)-methanone]
32 | 5.52 to 6.00 | CCS(=O)(=O)c1ccc2c(c1)N(C(=O)c1cc(Cl)c(O)c(Cl)c1)CCO2 [Example 84, (3,5-dichloro-4-hydroxyphenyl)-(6-ethanesulfonyl-2,3-dihydrobenzo[1,4]oxazin-4-yl)-methanone]
